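Cultured in 96-well plates, cells were exposed to test compound for 48 hours across five concentrations. At the TGI there is no net growth.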
Tests used:
Assay in all cases: NCI tumour cell line growth inhibition, 48 h
DMS 114 small cell lung = system: DMS 114 small cell lung
HOP-18 NSCLC = system: HOP-18 NSCLC
P388 leukemia = system: P388 leukemia
P388/ADR leukemia = system: P388/ADR leukemia
SN12K1 renal = system: SN12K1 renal
XF 498 CNS = system: XF 498 CNS
LXFL 529 NSCLC = system: LXFL 529 NSCLC

CC(=O)Oc1ccc(C2COc3cc(OC(C)=O)c(OC(C)=O)cc3C2)cc1 (stereo not given)
TGI (DMS 114 small cell lung): 17.1 µM | TGI (HOP-18 NSCLC): 46.8 µM | TGI (P388 leukemia): 37.1 µM | TGI (P388/ADR leukemia): > 53.6 µM | TGI (SN12K1 renal): 35.9 µM | TGI (XF 498 CNS): 25.9 µM

OC12CC/C(=N/OCc3ccccc3)CC1c1ccccc12 (stereo not given)
TGI (DMS 114 small cell lung): > 100 µM | TGI (HOP-18 NSCLC): > 100 µM | TGI (LXFL 529 NSCLC): > 100 µM

CC1(Cl)CC2C(CC1Sc1nnnn1-c1ccccc1)C2(C)C (stereo not given)
TGI (DMS 114 small cell lung): > 100 µM | TGI (LXFL 529 NSCLC): > 100 µM

NCCCCNCCCNC(=O)c1nc(-c2csc(CCN)n2)sc1Cl
TGI (DMS 114 small cell lung): > 100 µM | TGI (LXFL 529 NSCLC): 45.6 µM | TGI (XF 498 CNS): > 100 µM

COc1cc2c(cc1OC)-c1c3c(cc4c1[C@@H](C2)N(C)CC4)OCO3
TGI (DMS 114 small cell lung): 24.8 µM | TGI (HOP-18 NSCLC): 52 µM | TGI (P388 leukemia): 27.1 µM | TGI (P388/ADR leukemia): 23.3 µM | TGI (SN12K1 renal): 22.3 µM

CC(=O)OC1[C@H]2c3cc4c(cc3CN3CCC(=C[C@@H]1O)C23)OCO4 (stereo not given in full)
TGI (LXFL 529 NSCLC): > 100 µM

— PubChem BioAssay (NCI)
